Drawing on the SangsterLogP compilation, this text covers logP for 13 compounds.

For the compound `CC(C)(C)OC(=O)N[C@@H](Cc1ccc(O)c(O)c1)C(=O)O`, the logP (commonly a log measure of how a compound divides between an organic and an aqueous phase) was -1.86. `N[C@@H](Cc1ccccc1)C(=O)OCc1ccccc1` returned a logP of 2.48. The compound `N[C@@H](Cc1ccc(O)c(O)c1)C(=O)OCC1CCCO1` (stereo partly drawn) returned a logP of 0.01. `CC(C)OC(=O)[C@@H](N)Cc1ccc(O)c(O)c1` displayed a logP of 0.52. With `CC(C)(C)OC(=O)[C@@H](N)Cc1ccc(O)c(O)c1` the figure was 0.81. The result for `N[C@@H](Cc1ccc(O)c(O)c1)C(=O)OC1CCOC1` (stereo partly drawn) reads -0.45; that for `N[C@@H](Cc1ccc(O)cc1)C(=O)Oc1ccc([N+](=O)[O-])cc1`, 1.62. The result for `CCOC(=O)[C@@H](N)Cc1ccc(O)cc1` reads 0.6.

`CCC(C)OC(=O)[C@@H](N)Cc1ccc(O)cc1` (stereo partly drawn) displayed a logP of 1.59.

As for `CCC(C)OC(=O)[C@@H](N)Cc1ccc(O)c(O)c1` (stereo partly drawn), the logP was found to be 0.93. The result for `COC(=O)[C@@H](N)Cc1ccc(O)cc1` reads 0.18.

In the case of `CC(C)OC(=O)[C@@H](N)Cc1ccc(O)cc1`, the logP came out at 0.99. For the compound `COC(=O)[C@@H](N)Cc1ccc(O)c(O)c1`, the logP was -0.28.
